Laboratory results from patent US9745291B2, “PRMT5 inhibitors containing a dihydro- or tetrahydroisoquinoline and uses thereof” (Epizyme, Inc., priority 2012, dated 2017).
Read-outs that look alike come from different tables or passages of the source.

Key:
PRMT5/MEP50 = PRMT5/MEP50 (Homo sapiens (Human), UniProt O14744); assay: PRMT5 Biochemical Assay (PRMT5/MEP50 enzyme assay on peptide substrate, 3H-SAM Flashplate)
[1] = tested on: symmetric di-methyl arginine in Z-138 cells; assay: Z-138 Methylation Assay (In Cell Western for symmetric di-methyl arginine and DNA content); format: cell-based; conditions: read-out: ICW EC50
Description: [formula] Where top and bottom are the normally allowed to float, but may be fixed at 100 or 0 respectively in a 3-parameter fit. The Hill Coefficient normally allowed to float but may also be fixed at 1 in a 3-parameter fit. Y is the % inhibition and X is the compound concentration. Z-138 Methylation Assay
Z-138 suspension cells were purchased from ATCC (American Type Culture Collection, Manassas, Va.). RPMI/Glutamax medium, penicillin-streptomycin, heat inactivated fetal bovine serum, and D-PBS were purchased from Life Technologies, Grand Island, N.Y., USA. Odyssey blocking buffer, 800CW goat anti-rabbit IgG (H+L) antibody, and Licor Odyssey infrared scanner were purchased from Licor Biosciences, Lincoln, Nebr., USA. Symmetric di-methyl arginine antibody was purchased from EMD Millipore, Billerica, Mass., USA. 16% Paraformaldehyde was purchased from Electron Microscopy Sciences, Hatfield, Pa., USA.
Z-138 suspension cells were maintained in growth medium (RPMI 1640 supplemented with 10% v/v heat inactivated fetal bovine serum and 100 units/mL penicillin-streptomycin) and cultured at 37° C. under 5% CO2.
Cell Treatment, in Cell Western (ICW) for Detection of Symmetric Di-Methyl Arginine and DNA Content.
Z-138 cells were seeded in assay medium at a concentration of 50,000 cells per mL to a 384-well cell culture plate with 50 μL per well. Compound (100 nL) from 384 well source plates was added directly to 384 well cell plate. Plates were incubated at 37° C., 5% CO2 for 96 hours. After four days of incubation, 40 μL of cells from incubated plates were added to poly-D-lysine coated 384 well culture plates (BD Biosciences 356697). Plates were incubated at room temperature for 30 minutes then incubated at 37° C., 5% CO2 for 5 hours. After the incubation, 40 μL per well of 8% paraformaldehyde in PBS (16% paraformaldahyde was diluted to 8% in PBS) was added to each plate and incubated for 30 minutes. Plates were transferred to a Biotek 405 plate washer and washed 5 times with 100 μL per well of wash buffer (1×PBS with 0.1% Triton X-100 (v/v)). Next 30 μL per well of Odyssey blocking buffer were added to each plate and incubated 1 hour at room temperature. Blocking buffer was removed and 20 μL per well of primary antibody was added (symmetric di-methyl arginine diluted 1:100 in Odyssey buffer with 0.1% Tween 20 (v/v)) and plates were incubated overnight (16 hours) at 4° C. Plates were washed 5 times with 100 μL per well of wash buffer. Next 20 μL per well of secondary antibody was added (1:200 800CW goat anti-rabbit IgG (H+L) antibody, 1:1000 DRAQ5 (Biostatus limited) in Odyssey buffer with 0.1% Tween 20 (v/v)) and incubated for 1 hour at room temperature. The plates were washed 5 times with 100 μL per well wash buffer then 1 time with 100 μL per well of water. Plates were allowed to dry at room temperature then imaged on the Licor Odyssey machine which measures integrated intensity at 700 nm and 800 nm wavelengths. Both 700 and 800 channels were scanned.
First, the ratio for each well was determined by:
Each plate included fourteen control wells of DMSO only treatment (minimum inhibition) as well as fourteen control wells for maximum inhibition treated with 3 μM of a reference compound (Background wells). The average of the ratio values for each control type was calculated and used to determine the percent inhibition for each test well in the plate. Reference compound was serially diluted three-fold in DMSO for a total of nine test concentrations, beginning at 3 μM. Percent inhibition was determined and IC50 curves were generated using triplicate wells per concentration of compound. […]

Z-138 cell line = assay: Z-138 Proliferation Assay (Cell Titer Glo, 5 days); format: cell-based; conditions: Z-138 cells
Description: [formula] Z-138 Proliferation Assay
Z-138 suspension cells were purchased from ATCC (American Type Culture Collection, Manassas, Va.). RPMI/Glutamax medium, penicillin-streptomycin, heat inactivated fetal bovine serum were purchased from Life Technologies, Grand Island, N.Y., USA. V-bottom polypropylene 384-well plates were purchased from Greiner Bio-One, Monroe, N.C., USA. Cell culture 384-well white opaque plates were purchased from Perkin Elmer, Waltham, Mass., USA. Cell-Titer Glo® was purchased from Promega Corporation, Madison, Wis., USA. SpectraMax M5 plate reader was purchased from Molecular Devices LLC, Sunnyvale, Calif., USA.
Z-138 suspension cells were maintained in growth medium (RPMI 1640 supplemented with 10% v/v heat inactivated fetal bovine serum and cultured at 37° C. under 5% CO2 Under assay conditions, cells were incubated in assay medium (RPMI 1640 supplemented with 10% v/v heat inactivated fetal bovine serum and 100 units/mL penicillin-streptomycin) at 37° C. under 5% CO2.
For the assessment of the effect of compounds on the proliferation of the Z-138 cell line, exponentially growing cells were plated in 384-well white opaque plates at a density of 10,000 cells/ml in a final volume of 50 μl of assay medium. A compound source plate was prepared by performing triplicate nine-point 3-fold serial dilutions in DMSO, beginning at 10 mM (final top concentration of compound in the assay was 20 μM and the DMSO was 0.2%). A 100 nL aliquot from the compound stock plate was added to its respective well in the cell plate. […] After addition of compounds, assay plates were incubated for 5 days at 37° C., 5% CO2, relative humidity >90%.
Cell viability was measured by quantitation of ATP present in the cell cultures, adding 35 μl of Cell Titer Glo® reagent to the cell plates. Luminescence was read in the SpectraMax M5 microplate reader. The concentration of compound inhibiting cell viability by 50% was determined using a 4-parametric fit of the normalized dose response curves.

[2] = PRMT5 biochemical assay, read-out: Biochemical IC50
[3] = Homo sapiens, Z-138, Z-138 cells

Sequence of PRMT5/MEP50 (O14744 other isoform, or with tags, fused parts or gaps): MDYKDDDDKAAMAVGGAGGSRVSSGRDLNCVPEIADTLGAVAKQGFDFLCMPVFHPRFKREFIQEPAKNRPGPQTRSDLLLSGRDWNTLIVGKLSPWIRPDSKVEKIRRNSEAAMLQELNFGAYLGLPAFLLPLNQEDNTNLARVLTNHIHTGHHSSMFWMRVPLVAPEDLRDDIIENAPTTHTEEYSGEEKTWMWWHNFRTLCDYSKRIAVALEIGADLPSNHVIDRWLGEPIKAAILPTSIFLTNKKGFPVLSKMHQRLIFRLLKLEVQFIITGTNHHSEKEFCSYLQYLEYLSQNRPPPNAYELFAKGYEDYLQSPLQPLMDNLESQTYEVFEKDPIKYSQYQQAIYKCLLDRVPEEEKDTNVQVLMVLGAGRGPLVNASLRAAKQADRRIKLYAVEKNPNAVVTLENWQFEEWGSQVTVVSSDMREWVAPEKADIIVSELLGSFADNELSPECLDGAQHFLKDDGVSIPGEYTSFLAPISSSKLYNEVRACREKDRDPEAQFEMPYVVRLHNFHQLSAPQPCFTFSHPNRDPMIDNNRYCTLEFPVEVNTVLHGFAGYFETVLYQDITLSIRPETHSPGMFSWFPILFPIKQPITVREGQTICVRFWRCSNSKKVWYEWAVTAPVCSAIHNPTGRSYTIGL
Sequence of PRMT5/MEP50 (Q9BQA1 other isoform, or with tags, fused parts or gaps partner): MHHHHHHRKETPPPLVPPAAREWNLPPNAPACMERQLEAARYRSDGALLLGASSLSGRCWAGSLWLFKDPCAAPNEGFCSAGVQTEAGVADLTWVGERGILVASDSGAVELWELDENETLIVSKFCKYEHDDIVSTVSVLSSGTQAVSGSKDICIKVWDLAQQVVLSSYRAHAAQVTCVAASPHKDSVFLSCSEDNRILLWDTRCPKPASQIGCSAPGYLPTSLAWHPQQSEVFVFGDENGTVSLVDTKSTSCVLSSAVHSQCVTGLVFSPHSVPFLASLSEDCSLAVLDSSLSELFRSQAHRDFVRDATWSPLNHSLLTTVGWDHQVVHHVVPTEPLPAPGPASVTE

Molecule | IC50 (PRMT5/MEP50; [2]) | EC50 [1, 3] | EC50 (Z-138 cell line; Homo sapiens, Z-138, 120 h) | EC50 ([1]; Z-138 cells) | EC50 (Z-138 cell line) | IC50 (PRMT5/MEP50)
Cc1cccc2[nH]c(CCC(=O)NC[C@H](O)CN3CCc4ccccc4C3)nc12 [Compound 250] | < 100 nM | < 100 nM | 1000 to 10000 nM |  |  | 
O=C(CCc1nc(-c2ccccc2)c[nH]1)NC[C@H](O)CN1CCc2ccccc2C1 [Compound 243] | < 100 nM | < 100 nM | 1000 to 10000 nM |  |  | 
O=C(COc1ccccc1[C@@H]1CCCNC1)NC[C@H](O)CN1CCc2ccccc2C1 [Compound 262] | < 100 nM | 101 to 1000 nM | 10000 to 50000 nM |  |  | 
CN(C)S(=O)(=O)c1c(OCC(=O)NC[C@@H](O)CN2CCc3ccccc3C2)cccc1N1CCN(C2CC2)CC1 [Compound 278] | < 100 nM | < 100 nM | < 100 nM |  |  | 
CNCCN(C)S(=O)(=O)c1ccccc1OCC(=O)NC[C@@H](O)CN1CCc2ccccc2C1 [Compound 201] | < 100 nM | < 100 nM | 1000 to 10000 nM |  |  | 
COc1cccc2[nH]c(CCC(=O)NC[C@H](O)CN3CCc4ccccc4C3)nc12 [Compound 242] | < 100 nM | < 100 nM | 1000 to 10000 nM |  |  | 
N-(3-(3,4-dihydroisoquinolin-2(1H)-yl)-2-hydroxypropyl)-2-((1-(1-methylpiperidin-4-yl)-1H-indazol-5-yl)oxy)acetamide [Compound 71] | < 100 nM |  |  | 101 to 1000 nM | > 20000 nM | 
Cc1ccc2[nH]c(CCC(=O)NC[C@@H](O)CN3CCc4ccccc4C3)nc2c1 [Compound 207] | 101 to 1000 nM | 101 to 1000 nM | 10000 to 50000 nM |  |  | 
O=C(COc1cccc(N2CCNCC2)c1)NC[C@@H](O)CN1CCc2ccccc2C1 [Compound 197] | < 100 nM | 101 to 1000 nM | 10000 to 50000 nM |  |  | 
O=C(CCn1cnc2ccccc21)NC[C@@H](O)CN1CCc2ccccc2C1 [Compound 206] | 1000 to 10000 nM | > 1000 nM | > 20000 nM |  |  | 
NC1CCN(S(=O)(=O)c2ccccc2OCC(=O)NC[C@@H](O)CN2CCc3ccccc3C2)C1 (stereo partly drawn) [Compound 221] | < 100 nM | 101 to 1000 nM | 10000 to 50000 nM |  |  | 
O=C(COc1nc2ccccc2[nH]1)NC[C@H](O)CN1CCc2ccccc2C1 [Compound 223] | 101 to 1000 nM | 101 to 1000 nM | 1000 to 10000 nM |  |  | 
CN(CCN)S(=O)(=O)c1ccccc1OCC(=O)NC[C@@H](O)CN1CCc2ccccc2C1 [Compound 198] | < 100 nM | > 1000 nM | > 20000 nM |  |  | 
Cn1c(CCC(=O)NC[C@H](O)CN2CCc3ccccc3C2)nc2ccccc21 [Compound 222] | 101 to 1000 nM | 101 to 1000 nM | 1000 to 10000 nM |  |  | 
O=C(COc1ccccc1C1CNCC(O)C1)NC[C@@H](O)CN1CCc2ccccc2C1 (stereo partly drawn) [Compound 237] | 101 to 1000 nM | > 1000 nM | > 20000 nM |  |  | 
CC(C)N(C)CCN(C)S(=O)(=O)c1ccccc1OCC(=O)NC[C@@H](O)CN1CCc2ccccc2C1 [Compound 260] | < 100 nM | < 100 nM | 1000 to 10000 nM |  |  | 
O=C(COc1ccccc1C1CCCCN1)NC[C@H](O)CN1CCc2ccccc2C1 (stereo partly drawn) [Compound 253] | < 100 nM | 101 to 1000 nM | 10000 to 50000 nM |  |  | 

Molecule | IC50 (PRMT5/MEP50; [2]) | EC50 [1, 3] | EC50 (Z-138 cell line; Homo sapiens, Z-138, 120 h) | EC50 ([1]; Z-138 cells) | EC50 (Z-138 cell line) | IC50 (PRMT5/MEP50)
O=C(CCc1nc2c(F)cccc2[nH]1)NC[C@H](O)CN1CCc2ccccc2C1 [Compound 241] | < 100 nM | < 100 nM | 101 to 1000 nM |  |  | 
CC1NCCCC1c1ccccc1OCC(=O)NC[C@@H](O)CN1CCc2ccccc2C1 (stereo partly drawn) [Compound 254] | 101 to 1000 nM | > 1000 nM | 10000 to 50000 nM |  |  | 
O=C(COc1cccc(C(=O)NCCNCCO)c1)NC[C@@H](O)CN1CCc2ccccc2C1 [Compound 196] | 101 to 1000 nM | > 1000 nM | > 20000 nM |  |  | 
O=C(CCc1ncc[nH]1)NC[C@H](O)CN1CCc2ccccc2C1 [Compound 240] | 101 to 1000 nM | 101 to 1000 nM | 10000 to 50000 nM |  |  | 
N-(3-(3,4-dihydroisoquinolin-2(1H)-yl)-2-hydroxypropyl)-2-((1-(piperidin-4-yl)-1H-indazol-5-yl)oxy)acetamide [Compound 70] | < 100 nM |  |  | 101 to 1000 nM | > 20000 nM | 
[2H]C1([2H])Cc2ccccc2C([2H])([2H])N1C[C@H](O)CNC(=O)COc1cccc2cccnc12 [Compound 269] |  | 101 to 1000 nM | > 5000 nM |  |  | 101 to 1000 nM
O=C(COc1ccccc1[C@@H]1CCCNC1)NC[C@@H](O)CN1CCc2ccccc2C1 [Compound 264] | 101 to 1000 nM | > 1000 nM | 10000 to 50000 nM |  |  | 
CC(Oc1ccccc1[C@@H]1CCCNC1)C(=O)NC[C@@H](O)CN1CCc2ccccc2C1 (stereo partly drawn) [Compound 204] | 101 to 1000 nM | > 1000 nM | 10000 to 50000 nM |  |  | 
O=C(COc1cccc(C(=O)NCCc2ncc[nH]2)c1)NC[C@@H](O)CN1CCc2ccccc2C1 [Compound 267] | 101 to 1000 nM | > 1000 nM | > 20000 nM |  |  | 
CN(C[C@@H](O)CN1CCc2ccccc2C1)C(=O)CCc1nc2ccccc2[nH]1 [Compound 209] | 101 to 1000 nM | 101 to 1000 nM | 10000 to 50000 nM |  |  | 
CC1CNCCN1S(=O)(=O)c1ccccc1OCC(=O)NC[C@@H](O)CN1CCc2ccccc2C1 (stereo partly drawn) [Compound 202] | < 100 nM | 101 to 1000 nM | 10000 to 50000 nM |  |  | 
O=C(COc1ccccc1N1CCNCC1)NC[C@H](O)CN1CCc2ccccc2C1 [Compound 271] | < 100 nM | < 100 nM | 1000 to 10000 nM |  |  | 
O=C(CCc1nc2cc(Cl)ccc2[nH]1)NC[C@H](O)CN1CCc2ccccc2C1 [Compound 226] | < 100 nM | < 100 nM | 101 to 1000 nM |  |  | 
COCCNCCNC(=O)c1cccc(OCC(=O)NC[C@@H](O)CN2CCc3ccccc3C2)c1 [Compound 244] | < 100 nM | > 1000 nM | > 20000 nM |  |  | 
O=C(CCc1nc2cc(F)ccc2[nH]1)NC[C@@H](O)CN1CCc2ccccc2C1 [Compound 213] | 101 to 1000 nM | 101 to 1000 nM | > 20000 nM |  |  | 
Cn1cnc(CCNC(=O)c2cccc(OCC(=O)NC[C@@H](O)CN3CCc4ccccc4C3)c2)c1 [Compound 218] | 101 to 1000 nM | > 1000 nM | > 20000 nM |  |  | 
Cn1ccnc1CCC(=O)NC[C@H](O)CN1CCc2ccccc2C1 [Compound 259] | 101 to 1000 nM | 101 to 1000 nM | > 20000 nM |  |  | 
